Data set [1] is described as follows: Measurement of two-photon absorption cross-section (z-scan technique, 405 nm). It counts as physicochemical. Conditions: for Two-photon absorption cross-section σ: light of wavelength 405 nm, Ti:sapphire pulsed laser second harmonic, pulse width 80 fs, 1 kHz; for Ratio σ/ε: two-photon absorption cross-section σ (GM) to molar absorption coefficient ε at 405 nm. The source says:
The two-photon absorption cross-section of the compound A irradiated with light having a wavelength of 405 nm may be greater than or equal to 1 GM, may be greater than or equal to 10 GM, may be greater than or equal to 30 GM, may be greater than or equal to 50 GM, may be greater than or equal to 70 GM, may be greater than or equal to 100 GM, may be greater than or equal to 200 GM, or may be greater than or equal to 300 GM. The upper limit of the two-photon absorption cross-section of the compound A is not particularly limited, and is, for example, 10000 GM. For example, the two-photon absorption cross-section may be measured by the z-scan technique described in J. Opt. Soc. Am. B, 2003, Vol. 20, p. 529. The z-scan technique is widely used as a method for measuring non-linear optical constants. In the z-scan technique, a measurement sample is moved along the beam irradiation direction near the focal point at which the laser beam is focused. During this process, the change in the amount of light transmitted through the measurement sample is recorded. In the z-scan technique, the power density of incident light changes depending on the location of the measurement sample. Thus, when the measurement sample absorbs light non-linearly, the amount of transmitted light is attenuated when the measurement sample is located near the focal point of the laser beam. The two-photon absorption cross-section may be calculated by fitting the changes in the amount of transmitted light based on the theoretical curve predicted from conditions, such as the intensity of the incident light, the thickness of the measurement sample, and the concentration of the compound A in the measurement sample.
The two-photon absorption cross-section of the compounds of Examples and Comparative Examples was measured with respect to light having a wavelength of 405 nm. The measurement of the two-photon absorption cross-section was performed using the z-scan technique described in J. Opt. Soc. Am. B, 2003, Vol. 20, p. 529. The light source used for the measurement of the two-photon absorption cross-section was a Ti:sapphire pulsed laser. Specifically, second harmonic waves from the Ti:sapphire pulsed laser were applied to the sample. The pulse width of the laser was 80 fs. The repetition frequency of the laser was 1 kHz. The average power of the laser was changed in the range of greater than or equal to 0.01 mW and less than or equal to 0.08 mW. […] The full width at half maximum of the light from the laser was 4 nm.

The nature of data set [2]: Measurement of molar absorption coefficient (JIS K0115: 2004, 405 nm). It counts as physicochemical. The settings on record: absorbance at 405 nm; compound concentration 500 mmol/L. The source says: The molar absorption coefficient of the compound A with respect to light having a wavelength of 405 nm may be less than or equal to 50 mol^−1·L·cm^−1, may be less than or equal to 10 mol^−1·L·cm^−1, may be less than or equal to 5 mol^−1·L·c^−1, may be less than or equal to 2 mol^−1·L·cm^−1, or may be less than or equal to 1 mol^−1·L·cm^−1. The lower limit of the molar absorption coefficient of the compound A is not particularly limited, and is, for example, 0.01 mol^−1·L·cm^−1. The molar absorption coefficient may be measured by, for example, a method in accordance with the manual specified in Japanese Industrial Standards (JIS) K0115: 2004. […] In the measurement of the molar absorption coefficient, furthermore, the concentration of the compound A is adjusted to 500 mmol/L. This concentration is very high compared to the concentration in the measurement test of the molar absorption coefficient of an optical absorption peak. The molar absorption coefficient may be used as an index of one-photon absorption.
The compounds of Examples and Comparative Examples were analyzed by a method in accordance with JIS K0115: 2004 to measure the molar absorption coefficient. Specifically, first, a measurement sample was provided in which the concentration of the compound had been controlled to 500 mmol/L. An absorption spectrum of the measurement sample was measured. From the spectrum obtained, the absorbance at a wavelength of 405 nm was read. The molar absorption coefficient was calculated based on the concentration of the compound in the measurement sample and the optical path length of the cell used for the measurement.

Consider eight compounds from patent publication US20240069408A1, “LIGHT ABSORPTION MATERIAL, RECORDING MEDIUM, INFORMATION RECORDING METHOD, AND INFORMATION READING METHOD” (Panasonic Intellectual Property Management Co., Ltd., priority 2021, published 2024).

SMILES strings stand for the structures.

For `COc1cc(Br)c(-c2cc(OC)c(OC)cc2-c2cc(OC)c(OC)cc2Br)cc1OC` [OP3Br], in data set [1], the “Two-photon absorption cross-section σ” value is reported as “could not be measured”.
For `COc1cc(Br)c(-c2cc(OC)c(OC)cc2-c2cc(OC)c(OC)cc2-c2cc(OC)c(OC)cc2-c2cc(OC)c(OC)cc2-c2cc(OC)c(OC)cc2-c2cc(OC)c(OC)cc2-c2cc(OC)c(OC)cc2-c2cc(OC)c(OC)cc2-c2cc(OC)c(OC)cc2-c2cc(OC)c(OC)cc2-c2cc(OC)c(OC)cc2Br)cc1OC` [Ex. 3], in data set [2], the “Molar absorption coefficient ε” value is 0.50 L/mol/cm. In data set [1], the “Two-photon absorption cross-section σ” value is 71 GM and the “Ratio σ/ε” value is 142.
For `COc1cc(Br)c(-c2cc(OC)c(OC)cc2-c2cc(OC)c(OC)cc2-c2cc(OC)c(OC)cc2Br)cc1OC` [Ex. 1] the same measures were 1.34 L/mol/cm, 51 GM and 38.
For the compound `COc1cc(Br)c(-c2cc(OC)c(OC)cc2-c2cc(OC)c(OC)cc2-c2cc(OC)c(OC)cc2-c2cc(OC)c(OC)cc2-c2cc(OC)c(OC)cc2-c2cc(OC)c(OC)cc2-c2cc(OC)c(OC)cc2-c2cc(OC)c(OC)cc2-c2cc(OC)c(OC)cc2-c2cc(OC)c(OC)cc2-c2cc(OC)c(OC)cc2-c2cc(OC)c(OC)cc2-c2cc(OC)c(OC)cc2-c2cc(OC)c(OC)cc2-c2cc(OC)c(OC)cc2Br)cc1OC` [Ex. 5], the “Molar absorption coefficient ε” value in data set [2] came out at 1.51 L/mol/cm. Further, in data set [1], the “Two-photon absorption cross-section σ” value was 336 GM and the “Ratio σ/ε” value is 223.
For the compound `COc1cc(Br)c(-c2cc(OC)c(OC)cc2-c2cc(OC)c(OC)cc2-c2cc(OC)c(OC)cc2-c2cc(OC)c(OC)cc2-c2cc(OC)c(OC)cc2-c2cc(OC)c(OC)cc2-c2cc(OC)c(OC)cc2-c2cc(OC)c(OC)cc2-c2cc(OC)c(OC)cc2-c2cc(OC)c(OC)cc2-c2cc(OC)c(OC)cc2-c2cc(OC)c(OC)cc2-c2cc(OC)c(OC)cc2Br)cc1OC` [Ex. 4], in data set [2], the “Molar absorption coefficient ε” value came to 0.49 L/mol/cm. In data set [1], the “Two-photon absorption cross-section σ” value is 82 GM and the “Ratio σ/ε” value came to 167.
Turning to `C(#Cc1c(C#Cc2ccccc2)c(C#Cc2ccccc2)c(C#Cc2ccccc2)c(C#Cc2ccccc2)c1C#Cc1ccccc1)c1ccccc1` [compound 1, hexakis(phenylethynyl)benzene, reference compound], the “Molar absorption coefficient ε” value in data set [2] amounted to 2730 L/mol/cm. For the same compound, in data set [1], the “Two-photon absorption cross-section σ” value was determined as 23000 GM and the “Ratio σ/ε” value is 10.
With `OC(C#Cc1ccc(N(c2ccc(C#CC(O)(c3ccccc3)c3ccccc3)cc2)c2ccc(C#CC(O)(c3ccccc3)c3ccccc3)cc2)cc1)(c1ccccc1)c1ccccc1` [compound 2, reference compound], the “Molar absorption coefficient ε” value in data set [2] is 70 L/mol/cm. Also, in data set [1], the “Two-photon absorption cross-section σ” value worked out at 380 GM and the “Ratio σ/ε” value is reported as 5.
`COc1cc(Br)c(-c2cc(OC)c(OC)cc2-c2cc(OC)c(OC)cc2-c2cc(OC)c(OC)cc2-c2cc(OC)c(OC)cc2-c2cc(OC)c(OC)cc2-c2cc(OC)c(OC)cc2-c2cc(OC)c(OC)cc2Br)cc1OC` [Ex. 2]: the “Molar absorption coefficient ε” value in data set [2] came out at 1.01 L/mol/cm. Further, in data set [1], the “Two-photon absorption cross-section σ” value is 73 GM and the “Ratio σ/ε” value turned out to be 72.
